Test results taken from patent EP4792833A1, “CLEAVABLE LINKER COMPOUND FOR PRODRUG DELIVERY SYSTEM, AND PREPARATION AND USE THEREOF” (East China Normal University, priority 2023, dated 2025).

How the values were obtained:
[1] = test system: HCT116, A549, MCF-7, HepG2, and 4T1 cells; experiment: In vitro drug cytotoxicity assay (MTT) with or without β-glucuronidase; assay type: cell-based; details: 72 h
Experimental: The in vitro cytotoxicity of Compound (J1-1) prepared in Example 1 of the present invention against HCT116, A549, MCF-7, HepG2, and 4T1 cells, as well as that in the presence of β-glucuronidase, was determined by MTT assay. A total of 200 µL of culture medium containing 4000 cells was seeded into each well of a 96-well plate. After incubation for adherence for 24 h in an incubator (37 °C, 5% CO2), the culture medium was removed, and 200 µL of drug solutions at various concentrations with or without β-glucuronidase supplementation was added, followed by incubation for 72 h. The medium was removed, 100 µL of MTT solution (0.5 mg/mL) was added to each well, and the plate was incubated for 3 h. Subsequently, 100 µL of triple solution was added to each well, and the plate was incubated for 12 h. The absorbance (OD) at 570 nm was measured using a microplate reader. Cell viability was calculated according to the following formula: Cell viability % = (ODsample −ODblank)/(ODcontrol −ODblank) × 100% [formula]
ODsampleis the absorbance of the drug-treated group, ODblank is the absorbance of complete medium alone, ODcontrol is the absorbance of the cell-seeded group without drug treatment.

[2] = test system: HCT116 cell xenograft tumor model; experiment: Antitumor effect in HCT116 xenograft nude mice; assay type: in vivo, BALB/c nude mice
Experimental: Female BALB/c nude mice (4 weeks old) were selected and acclimated for three days in a barrier facility. HCT116 cells (5×10^6) were subcutaneously inoculated into the right flank of nude mice. When tumors grew to 80-100 mm^3, tumor-bearing nude mice were randomly divided into four groups with six mice per group. Normal saline (blank group), 30 mg/kg of (J1-1), and 60 mg/kg of Compound (J1-1) prepared in Example 1 of the present invention (supplementary treatment group) were administered intravenously via the tail vein, respectively. Administration was performed twice a week for a total of five times. Body weight and tumor volume of nude mice were observed and recorded.

β-glucuronidase = target: T1, β-glucuronidase (Homo sapiens, UniProt P08236); experiment: Enzyme release assay with β-glucuronidase (SN38 by HPLC); assay type: biochemical; details: for release of SN38 triggered by β-glucuronidase: β-glucuronidase 300 U, 37 °C, within 45 min
T1 sequence (P08236 23-651): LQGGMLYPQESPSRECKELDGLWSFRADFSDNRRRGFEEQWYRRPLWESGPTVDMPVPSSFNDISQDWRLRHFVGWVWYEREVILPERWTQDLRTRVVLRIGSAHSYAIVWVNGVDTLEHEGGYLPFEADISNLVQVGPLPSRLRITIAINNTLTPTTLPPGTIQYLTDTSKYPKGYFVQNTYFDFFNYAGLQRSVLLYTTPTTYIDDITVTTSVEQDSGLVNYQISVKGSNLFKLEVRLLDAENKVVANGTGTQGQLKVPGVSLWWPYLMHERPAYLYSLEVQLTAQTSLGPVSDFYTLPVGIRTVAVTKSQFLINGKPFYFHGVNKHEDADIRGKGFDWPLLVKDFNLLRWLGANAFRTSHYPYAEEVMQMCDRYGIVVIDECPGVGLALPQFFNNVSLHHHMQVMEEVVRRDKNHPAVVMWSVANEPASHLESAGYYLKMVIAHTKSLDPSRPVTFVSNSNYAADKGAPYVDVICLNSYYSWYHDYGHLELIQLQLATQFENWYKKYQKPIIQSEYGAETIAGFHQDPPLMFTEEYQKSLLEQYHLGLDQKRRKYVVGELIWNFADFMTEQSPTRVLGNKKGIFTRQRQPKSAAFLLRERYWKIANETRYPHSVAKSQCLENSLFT
Experimental: Compound (J1-1) solution (100 µM, pH 7.4 or pH 5.5) prepared in Example 1 of the present invention was mixed with β-glucuronidase (300 U) and incubated in a shaker at 37 °C. Corresponding samples (n=3) were taken at 1 min, 2 min, 5 min, 10 min, 20 min, 45 min, 60 min, and 90 min, precipitated with cold acetonitrile, centrifuged at 4 °C for 15 min, and the supernatant was collected. The content of SN38 was determined by HPLC.

[3] = Stability test in PBS and mouse plasma (HPLC); assay type: in vitro ADME
Experimental: The PBS solution (1 mM, pH 7.4) of Compound (J1-1) prepared in Example 1 of the present invention was incubated at 37 °C. Corresponding samples (n=3) were taken on Day 1, Day 2, Day 3, Day 5, and Day 7, and the contents of (J1-1) and SN38 were determined by HPLC.
Mouse plasma stability: 40 µL of the PBS solution (1 mM, pH 7.4) of Compound (J1-1) prepared in Example 1 of the present invention was mixed with 360 µL of mouse plasma and incubated in a shaker at 37 °C. Corresponding samples (n=3) were taken on Day 1, Day 2, Day 3, Day 5, and Day 7, precipitated with cold acetonitrile, centrifuged at 4 °C for 30 min, and the supernatant was collected. The content of SN38 was determined by HPLC.

## CCc1c2c(nc3ccc(OC(=O)N(C)c4cc([N+](=O)[O-])ccc4OCc4ccc(O[C@@H]5O[C@H](C(=O)O)[C@@H](O)[C@H](O)[C@H]5O)c(NC(=O)CCNC(=O)CCCCCN5C(=O)C=CC5=O)c4)cc13)-c1cc3c(c(=O)n1C2)COC(=O)[C@]3(O)CC [Compound J1-1]
[1]; with β-glucuronidase
  in vitro cytotoxicity in the presence of β-glucuronidase: could release the active drug upon β-glucuronidase triggering, thereby achieving the purpose of killing tumor cells
[1]; without β-glucuronidase
  in vitro cytotoxicity: low cytotoxicity
[2]; 30 mg/kg and 60 mg/kg intravenously via tail vein, twice a week, five administrations
  tumor volume: significantly reduced or even eliminated
[2]; HCT116 xenograft mouse model, summary statement
  survival period: significantly prolonged
β-glucuronidase; conditions simulating the tumor microenvironment, summary statement
  release of the active drug: can rapidly release the active drug
β-glucuronidase; pH 5.5, 100 µM
  release of SN38 triggered by β-glucuronidase: 100%
β-glucuronidase; pH 7.4, 100 µM
  release of SN38 triggered by β-glucuronidase: 100%
[3]; mouse plasma with PBS at pH 7.4, 37 °C, within seven days
  release of SN38: less than 2%
[3]; summary statement
  in vitro and in vivo stability: excellent
